Test results from ChEMBL document CHEMBL1138482 (J Med Chem, 2009).

Key:
[1] = biological target: T1, Trifunctional purine biosynthetic protein adenosine-3 (Homo sapiens, UniProt P22102); test: Inhibition of GARFTase in human KB cells assessed as inhibition of incorporation of [14C]glycine into [14C]formyl GAR after 30 mins in presence of azaserine
T1 sequence (P22102 whole entry): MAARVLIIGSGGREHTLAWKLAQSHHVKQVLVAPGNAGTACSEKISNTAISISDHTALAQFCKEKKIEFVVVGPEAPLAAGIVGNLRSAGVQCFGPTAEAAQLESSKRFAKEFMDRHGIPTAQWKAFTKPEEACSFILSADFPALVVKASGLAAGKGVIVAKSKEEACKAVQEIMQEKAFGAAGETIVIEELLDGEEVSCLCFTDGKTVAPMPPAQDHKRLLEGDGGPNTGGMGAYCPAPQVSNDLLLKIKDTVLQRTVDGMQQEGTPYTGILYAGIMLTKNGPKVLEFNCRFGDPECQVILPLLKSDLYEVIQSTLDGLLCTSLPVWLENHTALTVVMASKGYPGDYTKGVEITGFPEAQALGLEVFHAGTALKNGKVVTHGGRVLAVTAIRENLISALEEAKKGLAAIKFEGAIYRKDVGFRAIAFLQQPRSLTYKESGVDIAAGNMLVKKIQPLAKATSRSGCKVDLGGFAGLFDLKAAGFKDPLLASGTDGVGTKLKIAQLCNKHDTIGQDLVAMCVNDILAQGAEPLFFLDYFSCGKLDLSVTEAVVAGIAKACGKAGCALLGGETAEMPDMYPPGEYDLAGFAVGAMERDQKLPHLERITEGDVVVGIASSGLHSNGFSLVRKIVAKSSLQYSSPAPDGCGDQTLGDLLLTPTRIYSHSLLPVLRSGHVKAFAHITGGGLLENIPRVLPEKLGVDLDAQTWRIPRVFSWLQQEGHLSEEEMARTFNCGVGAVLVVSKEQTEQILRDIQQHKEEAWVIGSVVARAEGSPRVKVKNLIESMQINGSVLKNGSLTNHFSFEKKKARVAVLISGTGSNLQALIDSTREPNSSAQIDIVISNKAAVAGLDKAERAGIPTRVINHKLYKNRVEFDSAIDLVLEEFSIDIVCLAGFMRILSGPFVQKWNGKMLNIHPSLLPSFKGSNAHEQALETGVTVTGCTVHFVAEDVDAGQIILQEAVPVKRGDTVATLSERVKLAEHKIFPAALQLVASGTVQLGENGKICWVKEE

[2] = biological target: Folate receptor beta (Homo sapiens) (UniProt P14207); test: Displacement of [3H]folic acid from human folate receptor beta in chinese hamster D4 cells assessed as relative binding affinity relative to folic acid; format: cell-based
Folate receptor beta (Homo sapiens), sequence (P14207 17-230 limits assumed): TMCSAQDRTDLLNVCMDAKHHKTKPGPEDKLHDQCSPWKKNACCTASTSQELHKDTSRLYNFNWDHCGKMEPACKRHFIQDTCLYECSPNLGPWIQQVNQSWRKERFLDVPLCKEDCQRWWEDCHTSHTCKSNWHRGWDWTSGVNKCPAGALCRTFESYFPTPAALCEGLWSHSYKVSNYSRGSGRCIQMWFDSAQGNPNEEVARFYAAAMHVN

[3] = Antiproliferative activity against chinese hamster D4 cells expressing human folate receptor beta after 96 hrs by celltiter-blue cell viability assay in presence of folic acid; details: Cricetulus griseus, D4, 96 h
[4] = Antiproliferative activity against chinese hamster MTXRII-OuaR2-4 cells expressing human reduced folate carrier after 96 hrs by celltiter-blue cell viability assay; details: Cricetulus griseus
[5] = Antiproliferative activity against chinese hamster MTXRII-OuaR2-4 cells expressing human proton-coupled folate transporter after 96 hrs by celltiter-blue cell viability assay; details: Cricetulus griseus
KB [6] = test: Antiproliferative activity against human KB cells expressing human reduced folate carrier/folate receptor alpha after 96 hrs by celltiter-blue cell viability assay in presence of folic acid
[7] = Antiproliferative activity against chinese hamster PC43-10 cells expressing human reduced folate carrier after 96 hrs by celltiter-blue cell viability assay; details: Cricetulus griseus, PC43-10, 96 h
IGROV-1 [8] = test: Antiproliferative activity against human IGROV1 cells expressing human reduced folate carrier/folate receptor alpha after 96 hrs by celltiter-blue cell viability assay; details: IGROV-1, 96 h
[9] = Antiproliferative activity against chinese hamster MTXRII-OuaR2-4 cells expressing empty pCDNA3.1 after 96 hrs by celltiter-blue cell viability assay; details: Cricetulus griseus
[10] = Antiproliferative activity against chinese hamster RT16 cells expressing human folate receptor alpha after 96 hrs by celltiter-blue cell viability assay; details: Cricetulus griseus, RT16, 96 h
[11] = biological target: Folate receptor alpha (Homo sapiens) (UniProt P15328); test: Displacement of [3H]folic acid from human folate receptor alpha in chinese hamster RT16 cells assessed as relative binding affinity relative to folic acid; format: cell-based
Folate receptor alpha (Homo sapiens), sequence (P15328 25-234 limits assumed): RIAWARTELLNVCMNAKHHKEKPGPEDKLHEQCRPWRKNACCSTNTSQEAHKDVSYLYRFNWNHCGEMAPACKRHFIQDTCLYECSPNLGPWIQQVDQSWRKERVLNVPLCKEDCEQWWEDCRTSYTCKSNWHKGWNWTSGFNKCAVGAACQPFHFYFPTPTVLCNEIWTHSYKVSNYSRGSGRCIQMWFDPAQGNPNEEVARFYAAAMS

[12] = Antiproliferative activity against chinese hamster D4 cells expressing human folate receptor beta after 96 hrs by celltiter-blue cell viability assay; details: Cricetulus griseus, D4, 96 h
IGROV-1 [13] = test: Antiproliferative activity against human IGROV1 cells expressing human reduced folate carrier/folate receptor alpha after 96 hrs by celltiter-blue cell viability assay in presence of folic acid; details: IGROV-1, 96 h
[14] = Antiproliferative activity against chinese hamster RT16 cells expressing human folate receptor alpha after 96 hrs by celltiter-blue cell viability assay in presence of folic acid; details: Cricetulus griseus, RT16, 96 h
[15] = biological target: T2, Trifunctional purine biosynthetic protein adenosine-3 (Mus musculus, UniProt Q64737); test: Inhibition of mouse recombinant GARFTase
T2 sequence (Q64737 whole entry): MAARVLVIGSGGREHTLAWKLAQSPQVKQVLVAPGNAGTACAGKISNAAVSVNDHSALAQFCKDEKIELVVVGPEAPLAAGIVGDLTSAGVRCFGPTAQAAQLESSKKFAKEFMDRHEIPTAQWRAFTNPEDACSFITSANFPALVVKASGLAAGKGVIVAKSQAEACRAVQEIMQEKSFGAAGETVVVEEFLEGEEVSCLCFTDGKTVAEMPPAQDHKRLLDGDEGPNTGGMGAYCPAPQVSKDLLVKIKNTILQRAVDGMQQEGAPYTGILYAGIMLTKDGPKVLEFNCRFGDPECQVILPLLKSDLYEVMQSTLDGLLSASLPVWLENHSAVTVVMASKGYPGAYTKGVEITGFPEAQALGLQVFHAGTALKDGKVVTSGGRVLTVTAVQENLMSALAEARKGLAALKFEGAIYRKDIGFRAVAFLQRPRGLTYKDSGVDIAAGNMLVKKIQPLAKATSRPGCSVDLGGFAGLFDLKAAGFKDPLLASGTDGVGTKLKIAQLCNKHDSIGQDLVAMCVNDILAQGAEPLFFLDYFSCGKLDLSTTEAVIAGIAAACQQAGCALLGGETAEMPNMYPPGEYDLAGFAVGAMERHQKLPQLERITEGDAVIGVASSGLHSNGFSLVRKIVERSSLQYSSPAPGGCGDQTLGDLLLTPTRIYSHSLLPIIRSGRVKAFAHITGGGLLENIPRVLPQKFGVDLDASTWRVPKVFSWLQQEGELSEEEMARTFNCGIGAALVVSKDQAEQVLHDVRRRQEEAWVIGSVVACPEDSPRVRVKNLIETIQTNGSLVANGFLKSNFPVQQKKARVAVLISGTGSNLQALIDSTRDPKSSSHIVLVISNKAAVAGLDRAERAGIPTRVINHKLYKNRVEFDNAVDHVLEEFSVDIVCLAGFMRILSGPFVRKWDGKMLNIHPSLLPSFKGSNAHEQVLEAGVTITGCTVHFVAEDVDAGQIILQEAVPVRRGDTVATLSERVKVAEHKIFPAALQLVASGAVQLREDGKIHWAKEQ

KB [16] = test: Antiproliferative activity against human KB cells expressing human reduced folate carrier/folate receptor alpha after 96 hrs by celltiter-blue cell viability assay

SMILES | IC50 [1] [nM] | relative binding affinity (RBA) [2] | IC50 [3] [nM] | IC50 [4] [nM] | IC50 [5] [nM] | IC50 (KB [6]) [nM] | IC50 [7] [nM] | IC50 (IGROV-1 [8]) [nM] | IC50 [9] [nM] | IC50 [10] [nM] | relative binding affinity (RBA) [11] | IC50 [12] [nM] | IC50 (IGROV-1 [13]) [nM] | IC50 [14] [nM] | IC50 [15] [nM] | IC50 (KB [16]) [nM]
Nc1nc2sc(CCCCCCc3ccc(C(=O)N[C@@H](CCC(=O)O)C(=O)O)cc3)cc2c(=O)[nH]1 | 26.6 | > 0.8 | > 1000 | > 1000 | > 1000 | > 1000 | > 1000 | 334 | > 1000 | 108 | > 0.8 | 364 | > 1000 | > 1000 |  | 
CN(Cc1cnc2nc(N)nc(N)c2n1)c1ccc(C(=O)N[C@@H](CCC(=O)O)C(=O)O)cc1 |  |  |  |  |  |  |  |  |  |  | 0.8 |  |  |  |  | 
Nc1nc2sc(CCc3ccc(C(=O)N[C@@H](CCC(=O)O)C(=O)O)cc3)cc2c(=O)[nH]1 | 32.3 | < 0.01 | > 1000 | > 1000 | > 1000 | > 1000 | > 1000 | > 1000 | > 1000 | > 1000 | 0.25 | > 1000 | > 1000 | > 1000 | > 20000 | > 1000
Nc1nc2sc(CCCc3ccc(C(=O)N[C@@H](CCC(=O)O)C(=O)O)cc3)cc2c(=O)[nH]1 |  | > 0.8 | > 1000 | > 1000 | > 1000 | > 1000 | > 1000 |  | > 1000 |  | > 0.8 | 112 | > 1000 | > 1000 | 8520 | 
Nc1nc2sc(CCCCCCCc3ccc(C(=O)N[C@@H](CCC(=O)O)C(=O)O)cc3)cc2c(=O)[nH]1 |  | > 0.8 | > 1000 | > 1000 | > 1000 | > 1000 | > 1000 | > 1000 | > 1000 | > 1000 | > 0.8 | > 1000 | > 1000 | > 1000 |  | > 1000
Nc1nc2sc(CCCCCc3ccc(C(=O)N[C@@H](CCC(=O)O)C(=O)O)cc3)cc2c(=O)[nH]1 | 23.6 | > 0.8 | > 1000 | > 1000 | > 1000 | > 1000 | > 1000 |  | > 1000 |  | > 0.8 |  | > 1000 | > 1000 |  | 132
Nc1nc2sc(CCCCc3ccc(C(=O)N[C@@H](CCC(=O)O)C(=O)O)cc3)cc2c(=O)[nH]1 |  | > 0.8 | > 1000 | > 1000 | > 1000 | > 1000 | > 1000 |  | > 1000 |  | > 0.8 |  | > 1000 | > 1000 |  | 
Nc1nc2sc(CCCCCCCCc3ccc(C(=O)N[C@@H](CCC(=O)O)C(=O)O)cc3)cc2c(=O)[nH]1 |  | > 0.8 | > 1000 | > 1000 | > 1000 | > 1000 | > 1000 | > 1000 | > 1000 | > 1000 | > 0.8 | > 1000 | > 1000 | > 1000 |  | > 1000
